For 13 compounds, GI50 and TGI results are on record in PubChem BioAssay (NCI).

Some test systems named below: CAKI-1 renal; CCRF-CEM leukemia; COLO 205 colon; M14 melanoma; NCI/ADR-RES ovarian; OVCAR-4 ovarian; RPMI-8226 leukemia; SW-620 colon; TK-10 renal; UACC-62 melanoma.
Holding throughout (assay): inhibition of tumour cell growth, NCI panel, 48 h

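Interpolation was linear, between the two tested concentrations surrounding the appropriate level; five concentrations were tested over 48 hours in 96-well plates. GI50 marks 50% less growth. TGI: total growth inhibition.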 Some results are limits rather than exact numbers.

Consider `CCc1c[nH]c2ncnc(N3CC[C@](N)(CNC(=O)c4ccc(F)cc4F)C3)c12`, for which the GI50 with CAKI-1 renal is 8.62 µM; in the test with CCRF-CEM leukemia, 2.72 µM; in the test on COLO 205 colon it was 8.12 µM; in the test on M14 melanoma it was 15.6 µM; with NCI/ADR-RES ovarian it was > 61.2 µM; in the test with OVCAR-4 ovarian, 53.1 µM. Further, the GI50 with RPMI-8226 leukemia was 20.8 µM; in the test with SW-620 colon, 23.1 µM; in the test with TK-10 renal, 1.27 µM; in the test with UACC-62 melanoma, 3.33 µM. Further, the TGI in the test with CAKI-1 renal is > 63.6 µM; in the test on CCRF-CEM leukemia it was > 91.2 µM; in the test with COLO 205 colon, > 64.8 µM; in the test with M14 melanoma it was > 100 µM; with NCI/ADR-RES ovarian, > 100 µM; with OVCAR-4 ovarian it was > 100 µM. For the same compound, the TGI with RPMI-8226 leukemia was > 100 µM; in the test with SW-620 colon, > 100 µM; with TK-10 renal it was 50.4 µM; in the test with UACC-62 melanoma it was 45.1 µM.
As to `Cc1cccc(Cc2cnc(NC(=O)CCCOc3ccc(Cl)cc3)s2)c1`, the GI50 is 3.68 µM with CAKI-1 renal; 3.68 µM in the test on CCRF-CEM leukemia; 4.46 µM with COLO 205 colon; 3.68 µM in the test with M14 melanoma; 29.3 µM in the test on NCI/ADR-RES ovarian; 3.71 µM with OVCAR-4 ovarian. Besides, the GI50 is 4.23 µM in the test on RPMI-8226 leukemia, 3.39 µM in the test on SW-620 colon, > 100 µM with TK-10 renal and 9.45 µM in the test on UACC-62 melanoma. In addition, the TGI in the test on CAKI-1 renal, in the test with CCRF-CEM leukemia, in the test with COLO 205 colon, in the test on M14 melanoma, with NCI/ADR-RES ovarian and with OVCAR-4 ovarian was > 100 µM throughout. Moreover, the TGI in the test with RPMI-8226 leukemia, in the test with SW-620 colon, in the test on TK-10 renal and in the test on UACC-62 melanoma was > 100 µM throughout.
Consider `Cn1c(=O)c(Oc2ccc(F)cc2F)cc2cnc(NC3CCC(O)CC3)nc21` (stereo not given), for which the GI50 in the test on CAKI-1 renal, in the test on CCRF-CEM leukemia, in the test with COLO 205 colon, in the test with M14 melanoma, with NCI/ADR-RES ovarian and in the test with OVCAR-4 ovarian was > 25 µM throughout. Besides, the GI50 with RPMI-8226 leukemia is > 25 µM; in the test on SW-620 colon, > 25 µM; with TK-10 renal it was 24.6 µM; in the test with UACC-62 melanoma it was > 25 µM. Further, the TGI in the test with CAKI-1 renal, in the test on CCRF-CEM leukemia, with COLO 205 colon, with M14 melanoma, in the test with NCI/ADR-RES ovarian and in the test with OVCAR-4 ovarian was > 25 µM each time. For the same compound, the TGI in the test on RPMI-8226 leukemia, in the test with SW-620 colon, with TK-10 renal and with UACC-62 melanoma was > 25 µM in each case.
On to `COC(=O)c1ccccc1NCc1cc(O)ccc1O`, for which the TGI was 44.6 µM in the test with CAKI-1 renal; > 46.3 µM in the test on CCRF-CEM leukemia; 34 µM in the test on COLO 205 colon; 17.1 µM with M14 melanoma; 62.5 µM in the test on NCI/ADR-RES ovarian; 34.9 µM in the test on OVCAR-4 ovarian. For the same compound, the TGI in the test on RPMI-8226 leukemia is 96.9 µM; in the test on SW-620 colon, 52 µM; in the test with TK-10 renal, > 57.6 µM; with UACC-62 melanoma, 45.5 µM.
With `COC(=O)/C(=C/c1ccc(OC)cc1)c1cc(OC)c(OC)c(OC)c1`, the TGI was > 100 µM in the test with CAKI-1 renal; > 55.7 µM in the test with CCRF-CEM leukemia; 13.7 µM in the test with COLO 205 colon; > 96.3 µM in the test with M14 melanoma; > 100 µM with NCI/ADR-RES ovarian; > 100 µM in the test with OVCAR-4 ovarian. The TGI with RPMI-8226 leukemia was 69.5 µM; with SW-620 colon, > 100 µM; in the test with TK-10 renal, > 100 µM; with UACC-62 melanoma it was 37.4 µM.
Take `ClCc1ccc(Cn2cnc3nc(Cl)nc(Cl)c32)cc1`: the GI50 with CAKI-1 renal was 1.5 µM; in the test on CCRF-CEM leukemia, 1.79 µM; in the test with COLO 205 colon it was 5.66 µM; with M14 melanoma, 1.31 µM; with NCI/ADR-RES ovarian, 1.77 µM; in the test on OVCAR-4 ovarian, 1.57 µM. The GI50 with RPMI-8226 leukemia was 1.68 µM; in the test on SW-620 colon, 1.47 µM; in the test on TK-10 renal, 0.43 µM; in the test on UACC-62 melanoma, 0.974 µM. The TGI in the test on CAKI-1 renal was 2.86 µM; in the test on CCRF-CEM leukemia, 6.19 µM; in the test with COLO 205 colon it was > 20.5 µM; with M14 melanoma, 2.83 µM; with NCI/ADR-RES ovarian, 3.36 µM; in the test on OVCAR-4 ovarian it was 3.03 µM. The TGI with RPMI-8226 leukemia came out at 28.3 µM; in the test with SW-620 colon, 3.28 µM; in the test on TK-10 renal, 0.932 µM; in the test with UACC-62 melanoma it was 2.54 µM.
`CC(C)(CCc1nc2ccccc2[nH]1)C(=O)O`: the TGI in the test with CAKI-1 renal, in the test on CCRF-CEM leukemia, with COLO 205 colon, with M14 melanoma, in the test on NCI/ADR-RES ovarian and with OVCAR-4 ovarian was > 100 µM in each case. The TGI in the test with RPMI-8226 leukemia, in the test with SW-620 colon, with TK-10 renal and in the test on UACC-62 melanoma was > 100 µM each time.
For the compound `COc1ccc(-c2ccc(/C=N/n3c(COc4ccc(Cl)c(C)c4)nn(CN4CCOCC4)c3=S)o2)c([N+](=O)[O-])c1`, the GI50 is 23.6 µM with CAKI-1 renal; 19.3 µM in the test with CCRF-CEM leukemia; 39.8 µM with COLO 205 colon; 25.7 µM in the test on M14 melanoma; 27.6 µM in the test with NCI/ADR-RES ovarian; 31.9 µM with OVCAR-4 ovarian. Moreover, the GI50 in the test on RPMI-8226 leukemia is 12.5 µM; with SW-620 colon it was 19.9 µM; with TK-10 renal, 16.5 µM; with UACC-62 melanoma, 30.8 µM. The TGI with CAKI-1 renal is 57.1 µM; in the test on CCRF-CEM leukemia it was 56.2 µM; in the test with COLO 205 colon, > 100 µM; in the test on M14 melanoma, 66.6 µM; in the test with NCI/ADR-RES ovarian it was > 100 µM; in the test on OVCAR-4 ovarian, 76.7 µM. For the same compound, the TGI with RPMI-8226 leukemia is 34.9 µM; in the test on SW-620 colon, 48.9 µM; in the test on TK-10 renal, 50.5 µM; in the test with UACC-62 melanoma, > 100 µM.
As for `CC(C)C12CCC3(CCC4C(C)(C(=O)O)CCCC4(C)C3C1)C(CN)C2` (stereo not given), the TGI in the test with CAKI-1 renal was > 100 µM; in the test on CCRF-CEM leukemia, 19.4 µM; with COLO 205 colon, 33.2 µM; with M14 melanoma it was > 100 µM; with NCI/ADR-RES ovarian, > 100 µM; in the test with OVCAR-4 ovarian, > 100 µM. Also, the TGI in the test on RPMI-8226 leukemia is 42 µM; in the test with SW-620 colon it was > 100 µM; with TK-10 renal, > 100 µM; in the test with UACC-62 melanoma, > 100 µM.
Regarding `CC(=O)OC1CCC2(C)C(=CCC3C4CC(CN5CC5)C(=O)C4(C)CCC32)C1` (stereo not given), the GI50 with CAKI-1 renal is 2.21 µM; with CCRF-CEM leukemia it was 2.79 µM; in the test with COLO 205 colon, 3.71 µM; in the test with M14 melanoma, 14.2 µM; with NCI/ADR-RES ovarian it was 16 µM; in the test with OVCAR-4 ovarian it was 2.8 µM. Further, the GI50 is 1 µM in the test on RPMI-8226 leukemia, 3.17 µM in the test on SW-620 colon, 1.89 µM in the test with TK-10 renal and 11.7 µM with UACC-62 melanoma. The TGI came to 6.02 µM in the test with CAKI-1 renal; 11.4 µM with CCRF-CEM leukemia; 12 µM with COLO 205 colon; 31.7 µM in the test on M14 melanoma; 41.5 µM with NCI/ADR-RES ovarian; 9.55 µM in the test with OVCAR-4 ovarian. Also, the TGI came out at 6.28 µM in the test on RPMI-8226 leukemia, 13.3 µM in the test with SW-620 colon, 3.82 µM with TK-10 renal and 24.6 µM in the test on UACC-62 melanoma.
In the case of `Brc1ccc2c(c1)-c1ccccc1C1=NCCN12`, the GI50 in the test with CAKI-1 renal is 1.52 µM; with CCRF-CEM leukemia, 1.74 µM; in the test with COLO 205 colon it was 0.652 µM; in the test with M14 melanoma, 1.48 µM; in the test on NCI/ADR-RES ovarian, 0.897 µM; in the test with OVCAR-4 ovarian, 1.43 µM. Besides, the GI50 with RPMI-8226 leukemia was 1.71 µM; in the test with SW-620 colon, 0.44 µM; in the test with TK-10 renal, 1.5 µM; with UACC-62 melanoma it was 1.69 µM. In addition, the TGI in the test with CAKI-1 renal was 7.92 µM; in the test on CCRF-CEM leukemia, 4.93 µM; in the test on COLO 205 colon it was 2.33 µM; in the test with M14 melanoma, 3.16 µM; in the test on NCI/ADR-RES ovarian it was 26.7 µM; in the test with OVCAR-4 ovarian, 8.53 µM. The TGI in the test with RPMI-8226 leukemia was 4.95 µM; in the test with SW-620 colon, 10.4 µM; in the test with TK-10 renal, 7.18 µM; with UACC-62 melanoma, 3.24 µM.
Consider `C/C(=N\NC(=O)c1ccncc1)c1ccccc1O`, for which the GI50 is 0.805 µM in the test on CAKI-1 renal; 0.742 µM in the test on CCRF-CEM leukemia; 2.62 µM with COLO 205 colon; 4.95 µM with M14 melanoma; 2.23 µM in the test on NCI/ADR-RES ovarian; 1.94 µM in the test on OVCAR-4 ovarian. The GI50 is 4.68 µM in the test on RPMI-8226 leukemia, 5.27 µM in the test on SW-620 colon, 3.03 µM with TK-10 renal and 3.04 µM in the test with UACC-62 melanoma. Further, the TGI is 21.4 µM in the test on CAKI-1 renal; > 100 µM in the test with CCRF-CEM leukemia; > 100 µM with COLO 205 colon; 89.1 µM with M14 melanoma; > 100 µM in the test on NCI/ADR-RES ovarian; > 100 µM with OVCAR-4 ovarian. In addition, the TGI is > 100 µM in the test with RPMI-8226 leukemia, > 100 µM with SW-620 colon, > 100 µM in the test with TK-10 renal and 18.9 µM in the test on UACC-62 melanoma.
For `CCC(=C(c1ccc(OCCN(CC)CC)cc1)c1ccc(OCCN(CC)CC)cc1)c1ccc(Cl)cc1`, the GI50 with CAKI-1 renal was 0.515 µM; in the test with CCRF-CEM leukemia it was 0.641 µM; in the test with COLO 205 colon, 0.631 µM; in the test with M14 melanoma, 0.585 µM; in the test with NCI/ADR-RES ovarian, 0.625 µM; in the test on OVCAR-4 ovarian it was 0.714 µM. The GI50 in the test on RPMI-8226 leukemia is 0.714 µM; in the test with SW-620 colon it was 0.572 µM; in the test with TK-10 renal, 0.528 µM; in the test on UACC-62 melanoma it was 0.592 µM. The TGI in the test with CAKI-1 renal came out at 0.984 µM; with CCRF-CEM leukemia, 1.74 µM; in the test with COLO 205 colon, 1.32 µM; with M14 melanoma, 1.11 µM; in the test on NCI/ADR-RES ovarian it was 1.21 µM; in the test on OVCAR-4 ovarian, 1.66 µM. The TGI was determined as 1.64 µM in the test on RPMI-8226 leukemia, 1.12 µM in the test on SW-620 colon, 1.1 µM in the test with TK-10 renal and 1.13 µM with UACC-62 melanoma.
